Assay results: paper PMC10065799, “High-throughput profiling of sequence recognition by tyrosine kinases and SH2 domains using bacterial peptide display” (eLife, 2023)
Blank lines part the entries; values can stand above or below the sequence they belong to.

Key:
Test in all cases: pTyr-Var library bacterial peptide display kinase screen (enrichment scores)
EPHB2 kinase domain = format: biochemical, human; settings: sheet EPHB2; effect of variant peptide relative to its reference peptide in the pTyr-Var library screen (enrichment scores)
Fer kinase domain = format: biochemical, mouse; settings: sheet "Fer"
c-Src kinase domain = c-Src kinase domain (Homo sapiens, UniProt P12931); format: biochemical; settings: sheet "Src";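 further: log2 fold change in enrichment of variant over reference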
c-Abl kinase domain = molecular target: T1, c-Abl kinase domain (Mus musculus, UniProt P00520); format: biochemical;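 further: log2 fold change in enrichment of variant over reference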
T1 sequence (P00520 242-493 limits assumed): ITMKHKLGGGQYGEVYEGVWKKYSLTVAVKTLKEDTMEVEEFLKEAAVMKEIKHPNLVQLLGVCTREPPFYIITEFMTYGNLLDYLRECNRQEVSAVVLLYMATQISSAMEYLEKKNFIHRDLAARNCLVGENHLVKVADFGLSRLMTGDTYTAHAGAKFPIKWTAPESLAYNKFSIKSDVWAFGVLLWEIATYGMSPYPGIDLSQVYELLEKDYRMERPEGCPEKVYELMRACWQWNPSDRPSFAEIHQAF

EPHB1 kinase domain = format: biochemical, human; settings: for Screen: sheet EPHB1, effect of the variant peptide relative to its reference peptide in the pTyr-Var library screen (enrichment scores); for Screen (variant relative to reference peptide, measured in the pTyr-Var library screen): sheet "EPHB1", variant seq vs reference seq, bacterial peptide display enrichment
[1] = value of the variant peptide against its reference peptide in the pTyr-Var library screen with Fer
[2] = effect of the variant peptide relative to its reference peptide in the pTyr-Var library screen
[3] = fig5-data2, sheet "Abl", Screen for the variant/reference peptide pair, pTyr-Var library
[4] = variant peptide relative to its reference peptide, pTyr-Var library screen enrichment
[5] = variant peptide versus its reference peptide in the pTyr-Var library screen
[6] = sheet "Abl", effect of variant peptide relative to its reference peptide in pTyr-Var library screen (enrichment)

Screen (EPHB2 kinase domain): -2.35
Sequence: TDIVAYSGWVQ [SPTBN2_Y477_R480W]

Sequence: TTGGFYSFGGG [KRT24_Y120_A115T_YF]
Screen (Fer kinase domain; [1]): -0.6603
Screen (c-Src kinase domain; [2]): -0.1401

Screen (c-Abl kinase domain; [3]): 0.0101
Sequence: IKKLIYVFLVI [JAGN1_Y42_H44Y_YF]

Sequence: KEAQVYQAFRL [SUCLG2_Y343_K347R]
Screen (Fer kinase domain; [4]): 0.58
Screen (c-Src kinase domain; [5]): 0.6304

Sequence: HESEIYGKVCF [CSRP3_Y57_C58G_YF]
Screen (Fer kinase domain; [1]): 1.394
Screen (c-Src kinase domain; [2]): -0.5157

Screen (EPHB1 kinase domain): 1.362
Sequence: VRFVDYVLFRS [FAM189B_Y361_S358F]

Sequence: ERDTVYSSSGV [NELL2_Y350_N347D]
Screen (c-Src kinase domain; [5]): 1.43

Screen (c-Abl kinase domain; [3]): -1.213
Sequence: KAIMTYVFSFF [ACTN4_Y260_S262F_YF]

Screen (c-Abl kinase domain; [3]): 1.288
Sequence: WDLTDYLMKIL [ACTB_Y188_R183W]

Screen (c-Abl kinase domain; [3]): 0.2401
Sequence: TLPAFYMENFS [GLB1_Y552_G554E]

Sequence: LLTALYFISWG [KCNH2_Y780_R784W]
Screen (c-Src kinase domain; [2]): 0.3693

Screen (c-Abl kinase domain; [3]): 0.08452
Sequence: GKVADYIPQLP [GLS_Y249_A254P]

Screen (c-Abl kinase domain; [6]): 1.206
Sequence: CDFKKYGKGLR [ZNF445_Y433_Y428C_YF]

Sequence: PLQHVYKIGGI [EEF1A2_Y254_D252H]
Screen (EPHB1 kinase domain): -0.7167
Screen (c-Src kinase domain; [2]): -2.182

Screen (c-Abl kinase domain; [6]): 0.8642
Sequence: RGKDNYETSQL [SPP1_Y225_S224N]

Sequence: GVSFIYTIDGS [DCX_Y105_R102S_YF]
Screen (c-Abl kinase domain; [3]): -0.05601
Screen (c-Src kinase domain; [2]): 0.9806

Screen (c-Abl kinase domain; [3]): 0.7498
Sequence: LEIETYRRLRD [KRT12_Y429_L433R]

Sequence: IFSGIYFKPES [L2HGDH_Y102_H98Y_YF]
Screen (EPHB1 kinase domain): 0.7253
Screen (c-Src kinase domain; [2]): 0.7627

Sequence: AEARMYGVLPW [PLP1_Y207_D203E]
Screen (EPHB2 kinase domain): -1.308
Screen (c-Src kinase domain; [5]): -0.462

Sequence: KRNSLYSFSDH [CCDC82_Y331_Q327R]
Screen (Fer kinase domain; [1]): -2.294
Screen (c-Src kinase domain; [2]): -1.645

Screen (c-Abl kinase domain; [3]): 0.1245
Sequence: ERIELYELDKK [PMM2_Y145_F144L]

Screen (EPHB2 kinase domain): 0.6623
Screen (EPHB1 kinase domain): 1.06
Sequence: LAIELYVVVCK [RHO_Y136_R135L]

Sequence: PDSVDYPKKGF [CTSK_Y121_R122P_YF]
Screen (Fer kinase domain; [1]): 0.978
Screen (c-Abl kinase domain; [3]): -1.054
Screen (c-Src kinase domain; [2]): 2.065

Screen (Fer kinase domain; [1]): 4.104
Sequence: GGMTEYELVVV [KRAS_Y4_K5E]

Sequence: RRIHSYRGHVW [VHL_Y112_L116V]
Screen (variant relative to reference peptide, measured in the pTyr-Var library screen) (EPHB1 kinase domain): -1.04
Screen (c-Src kinase domain; [5]): -1.808

Sequence: PQAVTYATVKH [LILRB4_Y360_K362T]
Screen (c-Src kinase domain; [2]): 2.009

Screen (c-Abl kinase domain; [3]): 0.4141
Sequence: IWGKKYPTCNS [PTPRZ1_Y53_N48I]

Sequence: PLRAFYLIARV [HLCS_Y635_D634Y_YF]
Screen (c-Src kinase domain; [2]): 1.953

Screen (c-Abl kinase domain; [6]): -1.268
Sequence: LSEEKYELKEG [TREM1_Y29_T25S]

Screen (c-Abl kinase domain; [3]): 0.3442
Sequence: VIKDKYPKAHF [APTX_Y209_R213H_YF]

Sequence: PNRILYGDFWQ [MYH6_Y717_R721W]
Screen (c-Src kinase domain; [2]): -0.3786

Screen (Fer kinase domain; [1]): 3.227
Sequence: VDSAHYQLLET [DTX3L_Y385_K386Q]

Screen (EPHB2 kinase domain): -1.197
Sequence: LNCDRYSAGLL [PDE6A_Y275_V277A]

Screen (c-Abl kinase domain; [3]): -0.8606
Sequence: EPAVLYNLKER [MYH7_Y103_D107E]

Screen (c-Abl kinase domain; [6]): 0.6447
Sequence: EEETDYTPVWC [UROD_Y30_G25E]

Sequence: MSGDVYSTDFF [NTRK2_Y702_R699G_YF]
Screen (c-Src kinase domain; [5]): 0.7528

Sequence: STLEVYRCHPP [IL21R_Y317_S318R]
Screen (c-Src kinase domain; [2]): -1.75

Screen (EPHB2 kinase domain): 0.5582
Screen (EPHB1 kinase domain): 0.7713
Sequence: FTNELYMMMRD [FGFR1_Y730_C725Y_YF]

Sequence: RRIHRYRGHLW [VHL_Y112_S111R]
Screen (variant relative to reference peptide, measured in the pTyr-Var library screen) (EPHB1 kinase domain): -1.747
Screen (c-Src kinase domain; [5]): -2.928

Sequence: CSEEMYCLMLQ [RET_Y981_R982C]
Screen (Fer kinase domain; [4]): 3.517
Screen (c-Src kinase domain; [5]): 1.894

Sequence: RLDGEYFTLQI [TP53_Y327_P322R]
Screen (c-Abl kinase domain; [6]): 0.2276
Screen (c-Src kinase domain; [5]): -0.8354

Sequence: SPPEVYAIMRG [NTRK1_Y757_C752S]
Screen (c-Src kinase domain; [5]): 0.1672

Screen (c-Abl kinase domain; [3]): 1.479
Sequence: DCLASYLDKVR [KRT14_Y129_R125C]

Screen (c-Abl kinase domain; [3]): 1.643
Sequence: GITTGYLVLKE [DNMT3B_Y588_A585T]

Sequence: KCLAVYQAGAR [APOE_Y180_R176C]
Screen (c-Src kinase domain; [2]): 2.645

Screen (c-Abl kinase domain; [3]): -1.246
Sequence: EDAHHYLCKEV [JAK2_Y382_A377E]

Sequence: KSDVMYTDWKK [ORM1_Y175_V174M]
Screen (c-Src kinase domain; [5]): -1.392

Screen (c-Abl kinase domain; [6]): -5.31
Sequence: VKPENYRRLDV [VHL_Y175_I180V]

Screen (c-Abl kinase domain; [3]): -0.4574
Sequence: DPHECYAKVFN [ALB_Y394_D399N]

Screen (c-Abl kinase domain; [3]): 1.628
Sequence: KICDWYQRQRP [KRT14_Y151_R148C]

Sequence: TTPAVYARVTK [CTRB2_Y246_A250T]
Screen (c-Src kinase domain; [2]): 0.6652

Screen (c-Abl kinase domain; [3]): 0.583
Sequence: QHVPDYRQNGF [PCDHGA10_Y895_V899G_YF]
